{
  "source": "patent US7012128B2",
  "about": "“Interaction between cyclin D1 and steroid receptor co-activators and uses thereof in assays” (TopoTarget UK Limited, priority 1998, dated 2006)",
  "key": {"[1]": {"system": "MCF-7 breast cancer cells", "assay": "Cell cycle profiles by FACS after transient transfection", "assay_type": "cell-based", "conditions": "transient transfection of MCF-7", "description": "Cell cycle profiles were analysed using fluuorescence activated cell sorting (FACS)(Allen, 1990; Baldetorp et al, 1998)."}, "ER": {"target": "T1, ER (Homo sapiens, UniProt P03372)", "T1 sequence (P03372 1-595)": "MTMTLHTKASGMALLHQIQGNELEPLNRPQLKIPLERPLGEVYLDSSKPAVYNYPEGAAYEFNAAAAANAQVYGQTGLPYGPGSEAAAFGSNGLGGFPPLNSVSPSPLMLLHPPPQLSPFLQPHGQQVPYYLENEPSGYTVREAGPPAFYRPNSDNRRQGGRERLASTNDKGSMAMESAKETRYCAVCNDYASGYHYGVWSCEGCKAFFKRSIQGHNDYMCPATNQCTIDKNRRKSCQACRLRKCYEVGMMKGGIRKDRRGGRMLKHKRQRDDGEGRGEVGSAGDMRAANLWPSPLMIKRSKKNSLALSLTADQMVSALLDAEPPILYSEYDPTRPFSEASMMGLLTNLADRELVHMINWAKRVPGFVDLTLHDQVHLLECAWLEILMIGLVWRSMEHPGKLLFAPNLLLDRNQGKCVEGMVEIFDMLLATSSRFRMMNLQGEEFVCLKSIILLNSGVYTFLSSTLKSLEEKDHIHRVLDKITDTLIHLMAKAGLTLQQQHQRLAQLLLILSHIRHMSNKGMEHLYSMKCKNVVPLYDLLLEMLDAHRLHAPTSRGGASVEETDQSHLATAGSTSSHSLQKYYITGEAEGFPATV", "assay": "ER activation, ERE-reporter gene, in T47D cells", "assay_type": "cell-based", "parameters": "T47D and MCF-7, which contain endogenous wild type ER; endogenous in cells; host or cells: MCF-7; T47D", "conditions": "relative low levels of cyclin D1, 17β-estradiol enriched medium", "description": "The ER-containing T47D and MCF-7 breast cancer cells were maintained in 17β-estradiol enriched medium with 10%fetal calf serum after cotransfection with a cyclin D1 L254/255A mutant expression vector and an ERE-reporter gene for testing its effect on ER activation (left panel). ER transactivation in the absence of co-expression of the cyclin D1 mutant was set at 100%.\nTo get more insight in the role of cyclin D1 in ER transactivation in breast cancers with elevated levels of cyclin D1, we have tested the effect of the mutant cyclin D1 L254/255A on ER activation in two different breast cancer cell lines. This cyclin D1 mutant does bind to ER, but fails both to interact with SRC-1 as shown above and consequently fails to activate ER (FIG. 1B). Therefore, this mutant can act as a dominant negative in cyclin D1-mediated ER transactivation as it binds to ER and fails to recruit coactivators. We tested the effect of this cyclin D1 mutant on ER activation in two breast cancer cell lines, T47D and MCF-7, which contain endogenous wild type ER, but differ in their cyclin D1 protein levels (FIG. 6). […] In contrast, in MCF-7, which contain relative high levels of cyclin D1 (FIG. 6), the cyclin D1 mutant inhibited up to 50% of ER activity. Thus, this dominant negative cyclin D1 mutant preferentially interferes with ER activation in breast cancer cells that have high levels of cyclin D1 protein."}},
  "data": [
    {"substance": "Cyclin D1-LALA: cyclin D1 mutant in which leucines 254 and 255 were mutated to alanines; dominant negative", "values": [
      {"measurement": "effect on cell cycle", "setting": "[1]", "value": "arrest in the cell cycle at the G1/S checkpoint"},
      {"measurement": "Phase of cell cycle G0/G1", "setting": "[1]; FACS", "value": 81.9, "unit": "%"},
      {"measurement": "Phase of cell cycle G2/M", "setting": "[1]; FACS", "value": 7.9, "unit": "%"},
      {"measurement": "Phase of cell cycle S", "setting": "[1]; FACS", "value": 10.2, "unit": "%"},
      {"measurement": "inhibition of ER activity", "setting": "ER", "value": "slight inhibition"}
    ]}
  ]
}
